Source: patent publication US20150315241A1, “Antibiotic Peptides” (priority 2007, published 2015)
In brackets after ≈: the same amount, converted by molar mass. Like-named read-outs stand apart in the source and are kept apart here. Where a SMILES comes first, the peptide text is derived from it. [ ]: non-standard residue; d: D form. Hyp = O=C(O)[C@@H]1C[C@@H](O)CN1; Cit = NC(=O)NCCC[C@H](N)C(=O)O; Ac6c = NC1(C(=O)O)CCCCC1; Orn = NCCC[C@H](N)C(=O)O; βAla = NCCC(=O)O

Columns and labels:
E. coli BL 21 AI = assay: Growth inhibition assay (MIC); type: cell-based, Escherichia coli; settings: 1% TSB, 37° C., 20 hrs
Procedure: (§1) The minimal inhibition concentrations (MIC) of the apidaecin-derived peptides and peptide-derivatives were determined by a growth inhibition assay using a serial peptide dilution in sterilized round-bottom 96-well plates (polystyrene, U-bottom, Greiner Bio-One GmbH) with a final volume of 100 μL per well. The bacteria, e.g., E. coli BL21 A1, were grown in nutrient broth (NB, Carl Roth GmbH+Co. KG, Karlsruhe, Germany) at 37° C. over night. To each well of the 96-well plate, 50 μL of the overnight culture adjusted to 5×10^6 CFU/mL in 1% TSB were added. Lyophilized peptides and peptidomimetics were dissolved in 1% TSB (tryptic soy broth) or water to give a final concentration of 250 μg/mL. Fifty μL of the peptide or peptidomimetics solution were added to the first well of a row on the plate and mixed. Fifty μL of the first well containing the peptide solution were transferred to the second well, mixed and again 50 μL transferred to the next well and so on. Thereby, a two-fold dilution series was obtained starting at 250 μg/mL in the first well down to 120 ng/mL in the 12th well of a row giving a final peptide or peptidomimetics concentration from 125 μg/mL (well 1) to 60 ng/mL (well 12). Plates were incubated at 37° C. for 20 hrs. The absorbance was measured at 595 nm using a TECAN micro plate spectrophotometer (Tecan, Germany). All peptides and peptidomimetics were measured in triplicates. Sterilized water was used as a negative control.
(§2) The bacteria strains were tested: • Eschericha coli 1103, 10233, BL 21 AI, DC 2, • Klebsiella pneumoniae 681, • Micrococcus luteus ATCC 10240, • Mycobacterium vaccae • Bactillus subtillis 347.

M. luteus ATCC 10240 = type: cell-based, Micrococcus luteus
Procedure: as §1, §2

CC[C@H](C)[C@H](NC(=O)[C@H](Cc1ccc(O)cc1)NC(=O)[C@@H](NC(=O)[C@@H]1CCCN1C(=O)[C@H](CCCNC(=N)N)NC(=O)[C@H](CC(N)=O)NC(=O)[C@H](CC(N)=O)NC(=O)CN)C(C)C)C(=O)N1CCC[C@H]1C(=O)N[C@@H](CCC(N)=O)C(=O)N1CCC[C@H]1C(=O)N[C@@H](CCCNC(=N)N)C(=O)N1CCC[C@H]1C(=O)N1CCC[C@H]1C(=O)N[C@@H](Cc1c[nH]cn1)C(=O)N1CCC[C@H]1C(=O)N[C@@H](CCCNC(=N)N)C(=O)N[C@H](CC(C)C)C(N)=O [compound 77] (H-GNNRPVYIPQPRPPHPR[dL]-NH2)
MIC E. coli BL 21 AI (E. coli BL 21 AI): >125 µg/mL
MIC M. luteus ATCC 10240 (M. luteus ATCC 10240; ATCC 10240, 20 h): 31.25 µg/mL (≈ 14.8 µM)

CC[C@H](C)[C@H](NC(=O)[C@H](Cc1ccc(O)cc1)NC(=O)[C@@H](NC(=O)[C@@H]1CCCN1C(=O)[C@H](CCCNC(=N)N)NC(=O)[C@H](CC(N)=O)NC(=O)[C@H](CC(N)=O)NC(=O)CN)C(C)C)C(=O)N1CCC[C@H]1C(=O)N[C@@H](CCC(N)=O)C(=O)N1CCC[C@H]1C(=O)N[C@@H](CCCNC(=N)N)C(=O)N1CCC[C@H]1C(=O)N1CCC[C@H]1C(=O)N[C@@H](Cc1c[nH]cn1)C(=O)N1CCC[C@H]1C(=O)N[C@@H](CCCNC(=N)N)C(=O)NCCC(N)=O [compound 79] (H-GNNRPVYIPQPRPPHPR[βAla]-NH2)
MIC E. coli BL 21 AI (E. coli BL 21 AI): >125 µg/mL
MIC M. luteus ATCC 10240 (M. luteus ATCC 10240; ATCC 10240, 20 h): 62.5 µg/mL (≈ 30.3 µM)

CC[C@H](C)[C@H](NC(=O)[C@H](Cc1ccc(O)cc1)NC(=O)[C@@H](NC(=O)[C@@H]1CCCN1C(=O)[C@H](CCCNC(=N)N)NC(=O)[C@H](CC(N)=O)NC(=O)[C@H](CC(N)=O)NC(=O)CN)C(C)C)C(=O)N1CCC[C@H]1C(=O)N[C@@H](CCC(N)=O)C(=O)N1CCC[C@H]1C(=O)N[C@@H](CCCNC(=N)N)C(=O)N1CCC[C@H]1C(=O)N1CCC[C@H]1C(=O)N[C@@H](Cc1c[nH]cn1)C(=O)N1CCC[C@H]1C(=O)N[C@@H](CCCNC(=N)N)C(=O)NC1(C(N)=O)CCCCC1 [compound 80] (H-GNNRPVYIPQPRPPHPR[Ac6c]-NH2)
MIC E. coli BL 21 AI (E. coli BL 21 AI): >125 µg/mL
MIC M. luteus ATCC 10240 (M. luteus ATCC 10240; ATCC 10240, 20 h): 15.63 µg/mL (≈ 7.37 µM)

CC[C@H](C)[C@H](NC(=O)[C@H](CCCNC(=N)N)NC(=O)[C@@H]1CCCN1C(=O)[C@H](Cc1c[nH]cn1)NC(=O)[C@@H]1CCCN1C(=O)[C@@H]1CCCN1C(=O)[C@H](CCCNC(=N)N)NC(=O)[C@@H]1CCCN1C(=O)[C@H](CCCNC(N)=O)NC(=O)[C@@H]1CCCN1C(=O)[C@@H](NC(=O)[C@H](Cc1ccc(O)cc1)NC(=O)[C@@H](NC(=O)[C@@H]1CCCN1C(=O)[C@H](CCCNC(=N)N)NC(=O)[C@H](CC(N)=O)NC(=O)[C@H](CC(N)=O)NC(=O)CN)C(C)C)[C@@H](C)CC)C(N)=O [compound 89] (H-GNNRPVYIP[Cit]PRPPHPRI-NH2)
MIC E. coli BL 21 AI (E. coli BL 21 AI): 1.95 µg/mL (≈ 0.913 µM)
MIC M. luteus ATCC 10240 (M. luteus ATCC 10240; 1% TSB, 37° C., 20 hrs): 15.63 µg/mL (≈ 7.32 µM)

CC[C@H](C)[C@H](NC(=O)[C@H](CCCNC(=N)N)NC(=O)[C@@H]1CCCN1C(=O)[C@H](Cc1c[nH]cn1)NC(=O)[C@@H]1CCCN1C(=O)[C@@H]1CCCN1C(=O)[C@H](CCCNC(=N)N)NC(=O)[C@@H]1C[C@@H](O)CN1C(=O)[C@H](CCCNC(N)=O)NC(=O)[C@@H]1CCCN1C(=O)[C@@H](NC(=O)[C@H](Cc1ccc(O)cc1)NC(=O)[C@@H](NC(=O)[C@@H]1CCCN1C(=O)[C@H](CCCNC(=N)N)NC(=O)[C@H](CC(N)=O)NC(=O)[C@H](CC(N)=O)NC(=O)CN)C(C)C)[C@@H](C)CC)C(N)=O [compound 91] (H-GNNRPVYIP[Cit][Hyp]RPPHPRI-NH2)
MIC E. coli BL 21 AI (E. coli BL 21 AI): 1.95 µg/mL (≈ 0.906 µM)
MIC M. luteus ATCC 10240 (M. luteus ATCC 10240; 1% TSB, 37° C., 20 hrs): 7.81 µg/mL (≈ 3.63 µM)

CC[C@H](C)[C@H](NC(=O)[C@H](Cc1ccc(O)cc1)NC(=O)[C@@H](NC(=O)[C@@H]1CCCN1C(=O)[C@H](CCCNC(=N)N)NC(=O)[C@H](CC(N)=O)NC(=O)[C@H](CC(N)=O)NC(=O)[C@@H](N)CCCN)C(C)C)C(=O)N1CCC[C@H]1C(=O)N[C@@H](CCCN)C(=O)N1C[C@H](O)C[C@H]1C(=O)N[C@@H](CCCNC(=N)N)C(=O)N1CCC[C@H]1C(=O)N1CCC[C@H]1C(=O)N[C@@H](Cc1c[nH]cn1)C(=O)N1CCC[C@H]1C(=O)N[C@@H](CCCNC(=N)N)C(=O)N[C@@H](CC(C)C)C(N)=O [compound 102] (H-[Orn]NNRPVYIP[Orn][Hyp]RPPHPRL-NH2)
MIC E. coli BL 21 AI (E. coli BL 21 AI): 1.95 µg/mL (≈ 0.9 µM)
MIC M. luteus ATCC 10240 (M. luteus ATCC 10240; 1% TSB, 37° C., 20 hrs): 1.95 µg/mL (≈ 0.9 µM)
